From US5550138A, “Condensed thiadiazole derivative, method of its production, and use thereof” (Takeda Chemical Industries, Ltd., priority 1992, dated 1996)

Key:
endothelin receptor = test: Inhibition of endothelin-1 binding to endothelin receptor (125I-endothelin binding test, rabbit ventricular microsomal fraction); settings: 125I-endothelin-1 6×10^-11 M, 37° C., 90 minutes
Description: Inhibition of endothelin-1 binding to endothelin receptor
(a) Preparation of rabbit ventricular microsomal fraction
Rabbit ventricular microsomal fraction was prepared by the method described in Methods in Enzymology, 109, 513 with a slight modification. The cardiac ventricular muscle excised from a 2 to 2.5 kg rabbit was minced in solution A (20 mM NaHCO3, 0.1 mM phenylmethylsulfonyl fluoride (PMSF)) and then homogenized using a Polytron PT-20, and centrifuged at 1500×g for 15 minutes. The supernatant was centrifuged at 45000×g for 15 minutes. The resulting sediment was suspended in solution B (50 mM Tris-HCl pH 7.4, 0.1 mM PMSF) and then re-centrifuged at 45000×g for 15 minutes. The sediment was again suspended in solution B and then centrifuged at 45000×g for 15 minutes. The sediment was re-suspended in solution B, and the suspension was frozen with liquid nitrogen and stored at -80° C. This series of operations was performed at 4° C. Protein contents was determined by Lowry's method.
(b) ^125 I-endothelin binding test
To 250 μl of a reaction solution (50 mM Tris-HCl, pH 7.4, 0.2% BSA (bovine serum albumin)), supplemented with 6×10^-11 M ^125 I-endothelin-1 (Amersham Japan) 50 μl of the ventricular microsomal fraction (20 μg) and a sample were added, followed by incubation at 37° C. for 90 minutes. The reaction mixture was then filtered through a GF/B glass filter (Millipore Japan), and the filter was washed with a 40-fold (12 ml) of the reaction solution. The radioactivity of the ^125 I-endothelin on the glass filter was determined using a gamma-ray counter. Nonspecific binding was defined as the amount of ^125 I-endothelin in the presence of 4×10^-7 M unlabelled endothelin-1 and was less than 8% of total binding. The specific binding was calculated as total binding minus nonspecific binding. Non-specific binding accounted for not higher than 8% of the total binding. The inhibitory rate of the compound is expressed as the concentration (IC50 M) required to cause a 50% reduction in the specific binding.

Cathepsin B = test: Determination of cathepsin B inhibitory activity; assay type: biochemical; settings: substrate Z-Phe-Arg-NH-Mec; pH 5.5; 37° C., 20 minutes
Description: Determination of cathepsin B inhibitory activity
Cathepsin B (produced by Sigma) was diluted with 100 mM sodium acetate buffer (pH 5.5) to a concentration of 30 μg/ml. To 1 μl of this enzyme dilution, 46 μl of diluent, 2 μl of 0.1M DTT and 25 μl of activator/buffer (340 mM sodium acetate, 60 mM acetic acid, 4 mM EDTA disodium salt, pH 5.5) were added. To this mixture, a 1 μl sample, diluted to 10^-3 M with dimethylsulfoxide (DMSO), and 25 μl of 20 μM Z-Phe-Arg-NH-Mec (enzyme substrate solution) were added. After the mixture was incubated at 37° C. for 20 minutes, 100 μl of a stop solution (100 mM sodium monochloroacetate, 30 mM sodium acetate, pH 4.3) was added. The reaction was carried out on a 96-well fluoropiate (produced by Labo-Systems).
After the reaction was stopped, the absorbance of free aminomethylcoumarin was determined by excitation at 365 nm and emission at 450 nm, using Fluorescence Concentration Analyzer (produced by Baxter). One μl of sample-free DMSO was added for control, and the absorbance from reaction of this control was defined as 100% activity. For samples of under 10% residual activity, further dilutions were assayed for residual activity as described above to obtain the IC50 value.

bone resorption = test: Inhibition of bone resorption (45Ca release from fetal rat forearm bones); assay type: cell-based, rat (Sprague-Dawley); settings: 48 h, 10 μg/ml compound, two days of culture, read-out: Inhibition of Bone Resorption [45Ca released (percent ratio to control)]
Description: Inhibition of bone resorption
The inhibitory effect of compound on bone resorption was measured by the method of Rais 3 [Journal of Clinical Investigation, 44, 103-116 (1965)]. Specifically, one Sprague-Dawley rat, at 19 days of gestation, was given 50 μCi of ^45 Ca (calcium isotope, in CaCl2 solution) by subcutaneous injection. On the following day, fetal rats were aseptically taken out, both forearm bones (radius and ulna) were cut out from the body of each fetus, and connective tissue and cartilages were removed to maximum possible extent, to yield prepare bone culture samples. Each bone fragment was incubated at 37° C. for 24 hours in 0.6 ml of BGJb medium (Fitton-Jackson modification, produced by GIBCO Laboratories, United States) containing 2 mg/ml bovine serum albumin, after which it was cultured in the same medium as above but containing a 10 μg/ml compound for two more days. ^45 Ca radioactivity in the medium and ^45 Ca radioactivity in the bone were then measured, and the percent ratio of ^45 Ca released from the bone to the medium was calculated using the following equation: [formula]
For control, bone fractions from fetuses of the same litter were cultured for two days in the absence of the test compound. The mean ± standard deviation for the values from five bone fragments in each group were calculated, and their percent ratios to the control were calculated.

swine coronary artery = test: Inhibitory action on endothelin-1-induced constriction in swine coronary artery; assay type: cell-based; settings: Sus scrofa, relaxation of maximum constriction induced by endothelin-1 (3×10^-9 M); for inhibition at 100 µM: compound 1 × 10^-4 M; for inhibition at 10 µM: compound 1 × 10^-5 M; for inhibition at 30 µM: compound 3 × 10^-5 M
Description: Inhibitory action on endothelin-1-induced constriction in swine coronary artery
After fat tissue removal, the swine left coronary arterial anterior descending branch (LAD) was isolated and vascular rings were prepared. These arterial rings kept at 37° C., were suspended in a 20 ml organ chamber filled with Krebs solution being aerated with 95% O2 /5% CO2 gas. Two grams of the tension was applied. After equilibration for 1 hr, 60 mMKCl was applied to condition the coronary rings. The test compound was tested for inhibition of the constriction induced by endothelin-1 (3×10^-9 M) by adding the test compound when the maximum of endothelin-1 induced constriction was reached. Activity is expressed as percent relaxation of the maximum constriction induced by endothelin-1. The developed tension of rings was reached isometrically.

mice = test: Toxicity in mice (deaths); assay type: in vivo; settings: 300 mg/kg dose
Description: Although the daily dose varies depending on the condition and weight of the patient, kind of the compound, route of administration and other factors, it is administered parenterally, specifically subcutaneously, intravenously, intramuscularly or rectally at about 0.05 to 100 mg/kg/day, preferably 0.5 to 50 mg/kg/day as an endothelin receptor antagonist, about 0.1 to 100 mg/kg/day, preferably 1 to 50 mg/kg/day as a cathepsin B inhibitor and about 1 to 200 mg/kg/day, preferably 5 to 100 mg/kg/day as a bone resorption suppressor, respectively. For use as an oral agent, it is desirable to administer it at about 0.1 to 500 mg/kg/day, preferably 0.5 to 200 mg/kg/day as an endothelin receptor antagonist, about 1 to 500 mg/kg/day, preferably 10 to 300 mg/kg/day as a cathepsin B inhibitor and about 5 to 1000 mg/kg/day, preferably 10 to 300 mg/kg/day as a bone resorption suppressor, respectively.

| SMILES | IC50 (endothelin receptor) [µM] | activity at 10 µg/mL (bone resorption) [%] | further results |
| --- | --- | --- | --- |
| CCS(=O)(=O)N=c1nc2sc(C)c(-c3ccc(C4CCCCC4)cc3)n2s1 [Example 82] | 7.5 | – | – |
| CCc1sc2nc(=NS(=O)(=O)c3ccc(C)cc3)sn2c1-c1ccc(C2CCCCC2)cc1 [Example 99] | 2.1 | – | – |
| CCOC(=O)CCCc1sc2nc(=NS(=O)(=O)c3ccc(C)cc3)sn2c1-c1ccc(C2CCCCC2)cc1 [Example 98] | – | 87 | IC50 (Cathepsin B): 3.5 µM |
| CCNC(=O)Cc1sc2nc(=NS(=O)(=O)c3ccc(C)cc3)sn2c1-c1ccc2c(c1)CCCC2 [Example 31] | – | – | IC50 (Cathepsin B): 2.9 µM |
| CCNC(=O)CCc1sc2nc(=NS(=O)(=O)c3ccc(C)cc3)sn2c1-c1ccc2c(c1)CCCC2 [Example 94] | – | 76 | – |
| Cc1ccc(S(=O)(=O)N=c2nc3sc(C(C)C)c(-c4ccc5c(c4)CCCC5)n3s2)cc1 [Example 24] | 2.5 | – | inhibition at 100 µM (swine coronary artery): 99%; inhibition at 10 µM (swine coronary artery): 37% |
| Cc1ccc(S(=O)(=O)N=c2nc3sc(CC4CCCCC4)c(-c4ccc5c(c4)CCCC5)n3s2)cc1 [Example 25] | – | 72 | IC50 (Cathepsin B): 1.2 µM |
| CCOC(=O)Cc1sc2nc(=NS(=O)(=O)c3ccc(C)cc3)sn2c1-c1ccc2c(c1)CCCC2 [Example 26] | 4 | – | – |
| CCCCCCCCS(=O)(=O)N=c1nc2sc(C)c(-c3ccc(C4CCCCC4)cc3)n2s1 [Example 112] | 5.2 | – | inhibition at 10 µM (swine coronary artery): 35%; inhibition at 30 µM (swine coronary artery): 83% |
| CCc1sc2nc(=NS(=O)(=O)CC(C)(C)CO)sn2c1-c1ccc(C2CCCCC2)cc1 [Example 115] | – | 85 | – |
| CCOC(=O)CCC(NC(=O)CCc1sc2nc(=NS(=O)(=O)c3ccc(C)cc3)sn2c1-c1ccc2c(c1)CCCC2)C(=O)OCC (stereo not shown) [Example 96] | – | 81 | IC50 (Cathepsin B): 1.9 µM |
| Cc1sc2nc(=NS(=O)(=O)c3cccnc3)sn2c1-c1ccc(C2CCCCC2)cc1 [Example 108] | – | 85 | IC50 (Cathepsin B): 1.1 µM |
| CCCCOc1ccc(-c2c(CC)sc3nc(=NS(=O)(=O)c4ccc(C)cc4)sn23)cc1 [Example 104] | 2.7 | – | – |
| Cc1sc2nc(=NS(=O)(=O)Cc3ccccc3)sn2c1-c1ccc(C2CCCCC2)cc1 [Example 83] | 6 | – | deaths (mice): no deaths occurred |
| CCc1sc2nc(=NS(=O)(=O)c3ccc(C)cc3)sn2c1-c1cn(C)c2ccccc12 [Example 106] | 4.2 | – | – |
| CCc1sc2nc(=NS(=O)(=O)c3ccc(C)cc3)sn2c1CC(=O)NCC1CCCCC1 [Example 65] | – | 74 | – |
| Cc1ccc(NC(=O)Cc2sc3nc(=NS(=O)(=O)c4ccc(C)cc4)sn3c2-c2ccc3c(c2)CCCC3)cc1 [Example 34] | – | 75 | IC50 (Cathepsin B): 9.3 µM |
| Cc1ccc(S(=O)(=O)N=c2nc3cc4c(cn3s2)CCCC4)cc1 [Example 12] | 6.5 | – | inhibition at 100 µM (swine coronary artery): 62%; inhibition at 10 µM (swine coronary artery): 14% |
| O=S(=O)(N=c1nc2cc3c(cn2s1)CCCC3)c1ccccc1 [Example 14] | 8.8 | – | – |
| CCc1sc2nc(=NS(=O)(=O)c3ccc(C)cc3)sn2c1-c1ccc2c(c1)CCCC2 [Example 20, 5-ethyl-2-(4-methylphenyl)sulfonylimino-6-(5,6,7,8-tetrahydro-2-naphthyl)-2H-thiazolo[3,2-b][1,2,4]thiadiazole] | 3 | – | inhibition at 100 µM (swine coronary artery): 68%; inhibition at 10 µM (swine coronary artery): 11% |
| CCCc1sc2nc(=NS(=O)(=O)c3ccc(C)cc3)sn2c1-c1ccc2c(c1)CCCC2 [Example 23] | 2.5 | – | – |
| CCc1sc2nc(=NS(=O)(=O)c3ccc(F)cc3)sn2c1-c1ccc(C2CCCCC2)cc1 [Example 114] | 3.8 | – | inhibition at 10 µM (swine coronary artery): 44%; inhibition at 30 µM (swine coronary artery): 75% |
| CCCS(=O)(=O)N=c1nc2sc(C)c(-c3ccc(C4CCCCC4)cc3)n2s1 [Example 111] | 6.1 | 75 | inhibition at 10 µM (swine coronary artery): 40%; inhibition at 30 µM (swine coronary artery): 78% |
| Cc1ccccc1S(=O)(=O)N=c1nc2cc3c(cn2s1)CCCC3 [Example 13] | 5.9 | – | inhibition at 100 µM (swine coronary artery): 78%; inhibition at 10 µM (swine coronary artery): 56% |
| Cc1ccccc1S(=O)(=O)N=c1nc2sc(C)c(-c3ccc(C4CCCCC4)cc3)n2s1 [Example 73] | 7.3 | – | – |
